Source: patent publication US20020183309A1, “Novel amines as histamine-3 receptor ligands and their therapeutic applications” (priority 2001, published 2002)

molecular target: T1, histamine-3 receptors (H3 receptor) (Rattus norvegicus, UniProt Q9QYN8); assay: (3H)-N-α-methylhistamine binding to rat cortical membranes; conditions: male Sprague-Dawley rat brain cortical membranes; (3H)-N-α-methylhistamine ~0.6 nM; 30 minutes at 25° C.; Cheng-Prusoff equation; read-out: Ki
T1 construct: from tissue; host or cells: male Sprague-Dawley rat brain cortex membranes
Protocol: Briefly, male Sprague-Dawley rat brain cortices were homogenized (1 g tissue/10 mL buffer) in 50 mM Tris-HCl/5 mM EDTA containing protease inhibitor cocktail (Calbiochem) using a polytron set at 20,500 rpm. Homogenates were centrifuged for 20 minutes at 40,000×g. The supernatant was decanted, and pellets were weighed. The pellet was resuspended by polytron homogenization in 40 mL 50 mM Tris-HCl/5 mM EDTA with protease inhibitors and centrifuged for 20 minutes at 40,000×g. […] Rat cortical membranes (12 mg wet weight/tube) were incubated with (^3H)-N-α-methylhistamine (˜0.6 nM) with or without H3 receptor antagonists in a total incubation volume of 0.5 mL of 50 mM Tris-HCl/5 mM EDTA (pH 7.7). Test compounds were dissolved in DMSO to provide a 20 mM solution, serially diluted and then added to the incubation mixtures prior to initiating the incubation assay by addition of the membranes. Thioperamide (3 μM) was used to determine nonspecific binding. Binding incubations were conducted for 30 minutes at 25° C. and terminated by addition of 2 mL of ice cold 50 mM Tris-HCl (pH 7.7) and filtration through 0.3% polyethylenimine-soaked Unifilter plates (Packard). These filters were washed 4 additional times with 2 mL of ice-cold 50 mM Tris-HCl and dried for 1 hour. Radioactivity was determined using liquid scintillation counting techniques. Results were analyzed by Hill transformation and Ki values were determined using the Cheng-Prusoff equation.

T1 sequence (Q9QYN8 whole entry): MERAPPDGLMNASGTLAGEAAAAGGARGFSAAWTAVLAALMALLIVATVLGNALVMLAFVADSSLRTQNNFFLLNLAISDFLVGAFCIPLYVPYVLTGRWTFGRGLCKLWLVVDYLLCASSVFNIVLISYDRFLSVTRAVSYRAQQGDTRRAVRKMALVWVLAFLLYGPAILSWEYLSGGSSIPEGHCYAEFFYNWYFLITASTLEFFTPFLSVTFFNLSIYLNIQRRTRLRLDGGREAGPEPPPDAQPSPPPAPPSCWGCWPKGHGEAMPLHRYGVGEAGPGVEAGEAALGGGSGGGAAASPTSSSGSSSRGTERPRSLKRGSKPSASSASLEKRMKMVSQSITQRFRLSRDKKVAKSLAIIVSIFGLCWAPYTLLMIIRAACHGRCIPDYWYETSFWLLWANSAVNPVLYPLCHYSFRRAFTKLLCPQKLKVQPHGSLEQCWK

Ki	Structure (SMILES)
8.2 nM	CSc1ccc(C(=O)c2ccc3oc(CCN4CCC[C@H]4C)cc3c2)cc1 [Example 78, (2-{2-[(2R)-2-methyl-1-pyrrolidinyl]ethyl}-1-benzofuran-5-yl)[4-(methylthio)phenyl]methanone]
3.8 nM	C[C@@H]1CCCN1CCc1cc2cc(C(=O)c3ccc(N(C)C)cc3)ccc2o1 [Example 79, [4-(dimethylamino)phenyl](2-{2-[(2R)-2-methyl-1-pyrrolidinyl]ethyl}-1-benzofuran-5-yl)methanone]
1.6 nM	COc1ccccc1C(=O)c1ccc2oc(CCN3CCC[C@H]3C)cc2c1 [Example 82, (2-methoxyphenyl)(2-{2-[(2R)-2-methyl-1-pyrrolidinyl]ethyl}-1-benzofuran-5-yl)methanone]
1.1 nM	COc1cccc(C(=O)c2ccc3oc(CCN4CCC[C@H]4C)cc3c2)c1 [Example 83, (3-methoxyphenyl)(2-{2-[(2R)-2-methyl-1-pyrrolidinyl]ethyl}-1-benzofuran-5-yl)methanone]
2.8 nM	C[C@@H]1CCCN1CCc1cc2cc(C(=O)c3ccccc3)ccc2o1 [Example 84, (2-{2-[(2R)-2-methyl-1-pyrrolidinyl]ethyl}-1-benzofuran-5-yl)(phenyl)methanone]
